Key:
MAPK9 (JNK2) = biological target: T1, MAPK9 (JNK2) (Homo sapiens, UniProt P45984); experiment: Selectivity panel MAPK9; format: biochemical; conditions: 5 µM inhibitor
T1 construct: purchased Life Technologies (Invitrogen SelectScreen); Dyrk1A, Dyrk2 and CK2α in-house or gifts

MAP2K1 (MEK1) = biological target: T2, MAP2K1 (MEK1) (Homo sapiens, UniProt Q02750); experiment: Selectivity panel MAP2K1; format: biochemical; conditions: 5 µM inhibitor
T2 construct: purchased Life Technologies (Invitrogen SelectScreen); Dyrk1A, Dyrk2 and CK2α in-house or gifts

MAPK12 (p38 gamma, ERK3) = biological target: T3, MAPK12 (p38 gamma, ERK3) (Homo sapiens, UniProt P53778); experiment: Selectivity panel MAPK12; format: biochemical; conditions: 5 µM inhibitor
T3 construct: purchased Life Technologies (Invitrogen SelectScreen); Dyrk1A, Dyrk2 and CK2α in-house or gifts
T3 sequence (P53778 whole entry): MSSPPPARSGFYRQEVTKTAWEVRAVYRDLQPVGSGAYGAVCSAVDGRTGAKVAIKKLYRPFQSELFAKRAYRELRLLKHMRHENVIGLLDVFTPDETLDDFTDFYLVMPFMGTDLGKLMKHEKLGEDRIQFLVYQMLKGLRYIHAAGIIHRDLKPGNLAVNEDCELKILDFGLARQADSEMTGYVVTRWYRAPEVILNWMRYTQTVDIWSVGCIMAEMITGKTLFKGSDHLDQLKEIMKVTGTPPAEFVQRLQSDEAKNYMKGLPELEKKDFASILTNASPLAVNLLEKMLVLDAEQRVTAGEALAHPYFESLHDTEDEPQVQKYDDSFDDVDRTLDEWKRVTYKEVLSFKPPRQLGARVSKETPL

MYLK2 (skMLCK) = biological target: T4, MYLK2 (skMLCK) (Homo sapiens, UniProt Q9H1R3); experiment: Selectivity panel MYLK2; format: biochemical; conditions: 5 µM inhibitor
T4 construct: purchased Life Technologies (Invitrogen SelectScreen); Dyrk1A, Dyrk2 and CK2α in-house or gifts

MAPK8 (JNK1) = biological target: T5, MAPK8 (JNK1) (Homo sapiens, UniProt P45983); experiment: Selectivity panel MAPK8; format: biochemical; conditions: 5 µM inhibitor
T5 construct: purchased Life Technologies (Invitrogen SelectScreen); Dyrk1A, Dyrk2 and CK2α in-house or gifts

ABL1 = biological target: T6, ABL1 (Homo sapiens, UniProt P00519); experiment: Selectivity panel ABL1; format: biochemical; conditions: 5 µM inhibitor
T6 construct: purchased Life Technologies (Invitrogen SelectScreen); Dyrk1A, Dyrk2 and CK2α in-house or gifts

MINK1 = biological target: T7, MINK1 (Homo sapiens, UniProt Q8N4C8); experiment: Selectivity panel MINK1; format: biochemical; conditions: 5 µM inhibitor
T7 construct: purchased Life Technologies (Invitrogen SelectScreen); Dyrk1A, Dyrk2 and CK2α in-house or gifts
T7 sequence (Q8N4C8 whole entry): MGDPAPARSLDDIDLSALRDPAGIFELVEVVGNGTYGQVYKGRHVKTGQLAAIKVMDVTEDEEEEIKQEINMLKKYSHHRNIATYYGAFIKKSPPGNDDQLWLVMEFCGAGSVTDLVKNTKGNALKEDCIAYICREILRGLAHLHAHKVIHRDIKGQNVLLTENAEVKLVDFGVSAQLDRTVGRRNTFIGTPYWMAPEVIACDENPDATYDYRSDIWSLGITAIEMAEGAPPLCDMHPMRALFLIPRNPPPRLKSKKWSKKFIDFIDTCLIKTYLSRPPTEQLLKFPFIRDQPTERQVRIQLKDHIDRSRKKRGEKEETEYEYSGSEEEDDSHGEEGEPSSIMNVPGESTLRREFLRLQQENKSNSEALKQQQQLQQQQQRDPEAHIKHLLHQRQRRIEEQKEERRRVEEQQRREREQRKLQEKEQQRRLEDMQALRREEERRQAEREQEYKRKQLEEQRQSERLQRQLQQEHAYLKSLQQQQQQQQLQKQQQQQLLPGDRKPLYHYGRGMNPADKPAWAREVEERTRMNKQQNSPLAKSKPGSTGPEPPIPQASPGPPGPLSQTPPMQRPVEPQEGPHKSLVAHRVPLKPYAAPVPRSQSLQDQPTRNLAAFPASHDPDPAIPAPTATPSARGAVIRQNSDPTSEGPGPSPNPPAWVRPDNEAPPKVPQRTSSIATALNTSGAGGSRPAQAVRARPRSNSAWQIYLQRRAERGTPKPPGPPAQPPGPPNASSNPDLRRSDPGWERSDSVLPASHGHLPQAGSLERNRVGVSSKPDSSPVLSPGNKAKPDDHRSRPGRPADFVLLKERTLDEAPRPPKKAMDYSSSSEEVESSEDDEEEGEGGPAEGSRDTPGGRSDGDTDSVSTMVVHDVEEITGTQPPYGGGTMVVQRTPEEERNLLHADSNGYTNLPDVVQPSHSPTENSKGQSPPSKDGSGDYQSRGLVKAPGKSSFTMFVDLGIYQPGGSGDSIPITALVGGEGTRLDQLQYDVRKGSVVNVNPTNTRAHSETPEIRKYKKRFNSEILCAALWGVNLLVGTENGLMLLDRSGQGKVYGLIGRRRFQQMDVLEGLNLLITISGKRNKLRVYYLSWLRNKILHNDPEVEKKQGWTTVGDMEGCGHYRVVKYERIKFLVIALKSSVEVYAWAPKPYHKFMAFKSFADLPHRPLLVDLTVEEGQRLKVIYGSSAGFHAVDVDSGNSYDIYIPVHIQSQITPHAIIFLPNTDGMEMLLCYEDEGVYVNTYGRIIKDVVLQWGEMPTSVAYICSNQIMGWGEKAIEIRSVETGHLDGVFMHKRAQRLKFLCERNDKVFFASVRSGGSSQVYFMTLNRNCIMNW

IGF1R = biological target: T8, IGF1R (Homo sapiens, UniProt P08069); experiment: Selectivity panel IGF1R; format: biochemical; conditions: 5 µM inhibitor
T8 construct: purchased Life Technologies (Invitrogen SelectScreen); Dyrk1A, Dyrk2 and CK2α in-house or gifts

MAP4K2 (GCK) = biological target: T9, MAP4K2 (GCK) (Homo sapiens, UniProt Q12851); experiment: Selectivity panel MAP4K2; format: biochemical; conditions: 5 µM inhibitor
T9 construct: purchased Life Technologies (Invitrogen SelectScreen); Dyrk1A, Dyrk2 and CK2α in-house or gifts

PKN1 (PRK1) = biological target: T10, PKN1 (PRK1) (Homo sapiens, UniProt Q16512); experiment: Selectivity panel PKN1; format: biochemical; conditions: 5 µM inhibitor
T10 construct: purchased Life Technologies (Invitrogen SelectScreen); Dyrk1A, Dyrk2 and CK2α in-house or gifts

DAPK3 (ZIPK) = biological target: T11, DAPK3 (ZIPK) (Homo sapiens, UniProt O43293); experiment: Selectivity panel DAPK3; format: biochemical; conditions: 5 µM inhibitor
T11 construct: purchased Life Technologies (Invitrogen SelectScreen); Dyrk1A, Dyrk2 and CK2α in-house or gifts

AKT1 (PKB alpha) = biological target: T12, AKT1 (PKB alpha) (Homo sapiens, UniProt P31749); experiment: Selectivity panel AKT1; format: biochemical; conditions: 5 µM inhibitor
T12 construct: purchased Life Technologies (Invitrogen SelectScreen); Dyrk1A, Dyrk2 and CK2α in-house or gifts

PRKCE (PKC epsilon) = biological target: T13, PRKCE (PKC epsilon) (Homo sapiens, UniProt Q02156); experiment: Selectivity panel PRKCE; format: biochemical; conditions: 5 µM inhibitor
T13 construct: purchased Life Technologies (Invitrogen SelectScreen); Dyrk1A, Dyrk2 and CK2α in-house or gifts

IRAK4 = biological target: T14, IRAK4 (Homo sapiens, UniProt Q9NWZ3); experiment: Selectivity panel IRAK4; format: biochemical; conditions: 5 µM inhibitor
T14 construct: purchased Life Technologies (Invitrogen SelectScreen); Dyrk1A, Dyrk2 and CK2α in-house or gifts

RPS6KA5 (MSK1) = biological target: T15, RPS6KA5 (MSK1) (Homo sapiens, UniProt O75582); experiment: Selectivity panel RPS6KA5; format: biochemical; conditions: 5 µM inhibitor
T15 construct: purchased Life Technologies (Invitrogen SelectScreen); Dyrk1A, Dyrk2 and CK2α in-house or gifts

PDK1 = biological target: T16, PDK1 (Homo sapiens, UniProt O15530); experiment: Selectivity panel PDK1; format: biochemical; conditions: 5 µM inhibitor
T16 construct: purchased Life Technologies (Invitrogen SelectScreen); Dyrk1A, Dyrk2 and CK2α in-house or gifts

SGK (SGK1) = biological target: T17, SGK (SGK1) (Homo sapiens, UniProt O00141); experiment: Selectivity panel SGK; format: biochemical; conditions: 5 µM inhibitor
T17 construct: purchased Life Technologies (Invitrogen SelectScreen); Dyrk1A, Dyrk2 and CK2α in-house or gifts

STK23 (MSSK1) = biological target: T18, STK23 (MSSK1) (Homo sapiens, UniProt Q9UPE1); experiment: Selectivity panel STK23; format: biochemical; conditions: 5 µM inhibitor
T18 construct: purchased Life Technologies (Invitrogen SelectScreen); Dyrk1A, Dyrk2 and CK2α in-house or gifts

RAF1 (cRAF) Y340D Y341D = biological target: T19, RAF1 (cRAF) Y340D Y341D (Homo sapiens, UniProt P04049, Y340D/Y341D); experiment: Selectivity panel RAF1; format: biochemical; conditions: 5 µM inhibitor
T19 construct: purchased Life Technologies (Invitrogen SelectScreen); Dyrk1A, Dyrk2 and CK2α in-house or gifts

MAP2K6 (MKK6) = biological target: T20, MAP2K6 (MKK6) (Homo sapiens, UniProt P52564); experiment: Selectivity panel MAP2K6; format: biochemical; conditions: 5 µM inhibitor
T20 construct: purchased Life Technologies (Invitrogen SelectScreen); Dyrk1A, Dyrk2 and CK2α in-house or gifts
T20 sequence (P52564 whole entry): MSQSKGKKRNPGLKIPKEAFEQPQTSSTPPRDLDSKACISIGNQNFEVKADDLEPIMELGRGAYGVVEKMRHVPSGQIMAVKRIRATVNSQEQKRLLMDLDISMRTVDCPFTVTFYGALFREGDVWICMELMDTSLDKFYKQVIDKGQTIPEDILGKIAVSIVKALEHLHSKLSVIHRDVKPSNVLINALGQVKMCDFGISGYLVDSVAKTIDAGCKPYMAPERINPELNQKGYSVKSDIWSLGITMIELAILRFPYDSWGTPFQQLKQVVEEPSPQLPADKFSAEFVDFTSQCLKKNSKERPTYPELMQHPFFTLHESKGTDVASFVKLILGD

CDK2/cyclin A = biological target: T21, CDK2/cyclin A (Homo sapiens, UniProt P24941); experiment: Selectivity panel CDK2/cyclin A; format: biochemical; conditions: 5 µM inhibitor
T21 construct: purchased Life Technologies (Invitrogen SelectScreen); Dyrk1A, Dyrk2 and CK2α in-house or gifts

NEK7 = biological target: T22, NEK7 (Homo sapiens, UniProt Q8TDX7); experiment: Selectivity panel NEK7; format: biochemical; conditions: 5 µM inhibitor
T22 construct: purchased Life Technologies (Invitrogen SelectScreen); Dyrk1A, Dyrk2 and CK2α in-house or gifts
T22 sequence (Q8TDX7 whole entry): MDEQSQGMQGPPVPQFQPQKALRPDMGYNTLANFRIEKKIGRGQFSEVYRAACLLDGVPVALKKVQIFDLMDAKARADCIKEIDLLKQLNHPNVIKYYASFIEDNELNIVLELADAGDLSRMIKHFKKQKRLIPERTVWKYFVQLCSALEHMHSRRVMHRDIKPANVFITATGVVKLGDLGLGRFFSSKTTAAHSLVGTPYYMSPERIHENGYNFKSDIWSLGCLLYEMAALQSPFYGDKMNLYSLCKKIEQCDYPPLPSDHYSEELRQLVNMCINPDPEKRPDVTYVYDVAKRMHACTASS

FYN = biological target: T23, FYN (Homo sapiens, UniProt P06241); experiment: Selectivity panel FYN; format: biochemical; conditions: 5 µM inhibitor
T23 construct: purchased Life Technologies (Invitrogen SelectScreen); Dyrk1A, Dyrk2 and CK2α in-house or gifts
T23 sequence (P06241 whole entry): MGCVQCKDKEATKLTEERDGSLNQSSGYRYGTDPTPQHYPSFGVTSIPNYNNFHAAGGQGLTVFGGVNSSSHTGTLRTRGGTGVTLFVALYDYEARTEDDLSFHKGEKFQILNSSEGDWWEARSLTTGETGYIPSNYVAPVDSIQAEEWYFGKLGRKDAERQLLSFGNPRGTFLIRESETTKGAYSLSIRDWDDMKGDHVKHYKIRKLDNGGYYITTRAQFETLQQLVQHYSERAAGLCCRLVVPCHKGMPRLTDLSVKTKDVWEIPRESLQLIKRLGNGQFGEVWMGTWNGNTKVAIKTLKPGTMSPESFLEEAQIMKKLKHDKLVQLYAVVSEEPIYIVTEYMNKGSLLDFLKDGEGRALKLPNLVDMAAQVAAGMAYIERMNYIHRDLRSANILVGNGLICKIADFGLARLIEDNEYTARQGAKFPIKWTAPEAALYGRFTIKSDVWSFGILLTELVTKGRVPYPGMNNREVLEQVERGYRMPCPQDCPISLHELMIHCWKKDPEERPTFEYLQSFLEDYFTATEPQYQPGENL

MKNK1 (MNK1) = biological target: T24, MKNK1 (MNK1) (Homo sapiens, UniProt Q9BUB5); experiment: Selectivity panel MKNK1; format: biochemical; conditions: 5 µM inhibitor
T24 construct: purchased Life Technologies (Invitrogen SelectScreen); Dyrk1A, Dyrk2 and CK2α in-house or gifts

AURKA (Aurora A) = biological target: T25, AURKA (Aurora A) (Homo sapiens, UniProt O14965); experiment: Selectivity panel AURKA; format: biochemical; conditions: 5 µM inhibitor
T25 construct: purchased Life Technologies (Invitrogen SelectScreen); Dyrk1A, Dyrk2 and CK2α in-house or gifts

STK22B (TSSK2) = biological target: T26, STK22B (TSSK2) (Homo sapiens, UniProt Q96PF2); experiment: Selectivity panel STK22B; format: biochemical; conditions: 5 µM inhibitor
T26 construct: purchased Life Technologies (Invitrogen SelectScreen); Dyrk1A, Dyrk2 and CK2α in-house or gifts
T26 sequence (Q96PF2 whole entry): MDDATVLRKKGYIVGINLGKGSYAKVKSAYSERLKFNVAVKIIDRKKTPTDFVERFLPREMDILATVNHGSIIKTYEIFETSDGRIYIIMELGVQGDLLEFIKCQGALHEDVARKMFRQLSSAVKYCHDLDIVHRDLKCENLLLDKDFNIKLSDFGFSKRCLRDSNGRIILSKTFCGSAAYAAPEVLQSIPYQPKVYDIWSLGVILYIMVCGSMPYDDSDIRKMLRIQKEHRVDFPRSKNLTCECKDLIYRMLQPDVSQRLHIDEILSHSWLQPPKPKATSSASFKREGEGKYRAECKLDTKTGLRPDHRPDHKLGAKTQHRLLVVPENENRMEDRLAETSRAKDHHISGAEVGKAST

TEK (Tie2) = biological target: T27, TEK (Tie2) (Homo sapiens, UniProt Q02763); experiment: Selectivity panel TEK; format: biochemical; conditions: 5 µM inhibitor
T27 construct: purchased Life Technologies (Invitrogen SelectScreen); Dyrk1A, Dyrk2 and CK2α in-house or gifts

RIPK2 = biological target: T28, RIPK2 (Homo sapiens, UniProt O43353); experiment: Selectivity panel RIPK2; format: biochemical; conditions: 5 µM inhibitor
T28 construct: purchased Life Technologies (Invitrogen SelectScreen); Dyrk1A, Dyrk2 and CK2α in-house or gifts

CHEK1 (CHK1) = biological target: T29, CHEK1 (CHK1) (Homo sapiens, UniProt O14757); experiment: Selectivity panel CHEK1; format: biochemical; conditions: 5 µM inhibitor
T29 construct: purchased Life Technologies (Invitrogen SelectScreen); Dyrk1A, Dyrk2 and CK2α in-house or gifts

U2OS osteosarcoma cells = experiment: Caspase-3 Assay (Caspase-Glo 3/7); format: cell-based; conditions: starved U2OS cells, 48 hours, vs DMSO control
Experimental: U2OS osteosarcoma cells were seeded in a 96 well flat bottom plate (15*10^3 cells/well). […] The induction of caspase-3/7 activity was measured using the Promega Caspase-Glo 3/7 assay system (Promega, LOT 0000054568). The resulting luciferase reaction signals that are proportional to the caspase induction were measured in a POLARstar plate reader (BMG Labtech, Offenburg, Germany). […] Values obtained for different compound concentrations were compared using the two-sided Student's t test; levels of significance thus obtained are indicated by asterisks.

RET = biological target: T30, RET (Homo sapiens, UniProt P07949); experiment: Selectivity panel RET; format: biochemical; conditions: 5 µM inhibitor
T30 construct: purchased Life Technologies (Invitrogen SelectScreen); Dyrk1A, Dyrk2 and CK2α in-house or gifts

TAOK2 (TAO1) = biological target: T31, TAOK2 (TAO1) (Homo sapiens, UniProt Q9UL54); experiment: Selectivity panel TAOK2; format: biochemical; conditions: 5 µM inhibitor
T31 construct: purchased Life Technologies (Invitrogen SelectScreen); Dyrk1A, Dyrk2 and CK2α in-house or gifts

PRKACA (PKA) = biological target: T32, PRKACA (PKA) (Homo sapiens, UniProt P17612); experiment: Selectivity panel PRKACA; format: biochemical; conditions: 5 µM inhibitor
T32 construct: purchased Life Technologies (Invitrogen SelectScreen); Dyrk1A, Dyrk2 and CK2α in-house or gifts

LIMK1 = biological target: T33, LIMK1 (Homo sapiens, UniProt P53667); experiment: Selectivity panel LIMK1; format: biochemical; conditions: 5 µM inhibitor
T33 construct: purchased Life Technologies (Invitrogen SelectScreen); Dyrk1A, Dyrk2 and CK2α in-house or gifts
T33 sequence (P53667 whole entry): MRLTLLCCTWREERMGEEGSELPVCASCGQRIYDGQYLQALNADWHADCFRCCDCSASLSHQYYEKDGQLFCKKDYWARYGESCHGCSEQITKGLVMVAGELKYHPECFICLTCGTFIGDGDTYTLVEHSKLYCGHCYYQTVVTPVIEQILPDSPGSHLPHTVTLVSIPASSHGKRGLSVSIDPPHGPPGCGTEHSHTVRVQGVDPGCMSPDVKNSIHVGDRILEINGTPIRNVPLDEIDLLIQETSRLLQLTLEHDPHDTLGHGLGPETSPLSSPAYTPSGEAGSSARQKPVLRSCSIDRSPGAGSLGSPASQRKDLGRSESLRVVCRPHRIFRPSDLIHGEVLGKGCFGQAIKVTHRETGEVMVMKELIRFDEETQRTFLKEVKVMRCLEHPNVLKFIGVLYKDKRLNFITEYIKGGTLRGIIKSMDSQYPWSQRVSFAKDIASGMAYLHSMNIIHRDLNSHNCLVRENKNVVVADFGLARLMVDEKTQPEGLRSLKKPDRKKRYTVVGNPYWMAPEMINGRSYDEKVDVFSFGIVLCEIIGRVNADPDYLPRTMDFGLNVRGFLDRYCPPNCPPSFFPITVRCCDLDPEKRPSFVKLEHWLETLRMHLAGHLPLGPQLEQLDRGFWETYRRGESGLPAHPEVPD

EPHA5 = biological target: T34, EPHA5 (Homo sapiens, UniProt P54756); experiment: Selectivity panel EPHA5; format: biochemical; conditions: 5 µM inhibitor
T34 construct: purchased Life Technologies (Invitrogen SelectScreen); Dyrk1A, Dyrk2 and CK2α in-house or gifts

PAK4 = biological target: T35, PAK4 (Homo sapiens, UniProt O96013); experiment: Selectivity panel PAK4; format: biochemical; conditions: 5 µM inhibitor
T35 construct: purchased Life Technologies (Invitrogen SelectScreen); Dyrk1A, Dyrk2 and CK2α in-house or gifts

CLK2 = biological target: T36, CLK2 (Homo sapiens, UniProt P49760); experiment: Selectivity panel CLK2; format: biochemical; conditions: 5 µM inhibitor
T36 construct: purchased Life Technologies (Invitrogen SelectScreen); Dyrk1A, Dyrk2 and CK2α in-house or gifts
T36 sequence (P49760 whole entry): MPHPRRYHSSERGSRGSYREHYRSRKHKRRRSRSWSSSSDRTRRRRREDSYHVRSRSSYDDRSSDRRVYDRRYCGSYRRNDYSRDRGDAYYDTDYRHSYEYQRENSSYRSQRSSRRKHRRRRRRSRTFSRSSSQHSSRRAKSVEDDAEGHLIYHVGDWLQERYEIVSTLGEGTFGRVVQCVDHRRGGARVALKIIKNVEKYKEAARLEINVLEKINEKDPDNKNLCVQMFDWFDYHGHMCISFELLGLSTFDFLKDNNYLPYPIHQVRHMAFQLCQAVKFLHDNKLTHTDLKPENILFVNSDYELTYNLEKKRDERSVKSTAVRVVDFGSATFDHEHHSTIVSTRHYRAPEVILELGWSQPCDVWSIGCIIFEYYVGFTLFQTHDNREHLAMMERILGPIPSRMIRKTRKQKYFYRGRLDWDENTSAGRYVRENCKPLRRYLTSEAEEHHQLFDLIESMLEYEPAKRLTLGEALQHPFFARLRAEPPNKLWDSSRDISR

DYRK4 = biological target: T37, DYRK4 (Homo sapiens, UniProt Q9NR20); experiment: Selectivity panel DYRK4; format: biochemical; conditions: 5 µM inhibitor
T37 construct: purchased Life Technologies (Invitrogen SelectScreen); Dyrk1A, Dyrk2 and CK2α in-house or gifts

RPS6KB1 (p70S6K) = biological target: T38, RPS6KB1 (p70S6K) (Homo sapiens, UniProt P23443); experiment: Selectivity panel RPS6KB1; format: biochemical; conditions: 5 µM inhibitor
T38 construct: purchased Life Technologies (Invitrogen SelectScreen); Dyrk1A, Dyrk2 and CK2α in-house or gifts
T38 sequence (P23443 whole entry): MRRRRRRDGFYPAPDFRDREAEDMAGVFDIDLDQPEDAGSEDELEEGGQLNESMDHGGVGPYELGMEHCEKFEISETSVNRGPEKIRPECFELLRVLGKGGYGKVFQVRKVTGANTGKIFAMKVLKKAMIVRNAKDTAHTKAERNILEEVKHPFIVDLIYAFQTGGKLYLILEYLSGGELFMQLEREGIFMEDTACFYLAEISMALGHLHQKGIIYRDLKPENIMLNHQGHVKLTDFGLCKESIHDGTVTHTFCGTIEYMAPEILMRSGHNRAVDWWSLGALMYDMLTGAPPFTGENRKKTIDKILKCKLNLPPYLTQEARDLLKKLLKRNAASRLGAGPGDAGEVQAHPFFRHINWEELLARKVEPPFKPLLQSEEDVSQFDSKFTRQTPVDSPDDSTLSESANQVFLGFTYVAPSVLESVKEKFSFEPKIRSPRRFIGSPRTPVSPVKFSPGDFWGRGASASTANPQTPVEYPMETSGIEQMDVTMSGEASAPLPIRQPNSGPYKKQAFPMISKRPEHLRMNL

c1cncc(-c2csc(-c3cncs3)c2)c1 [Compound 48, 3-[5-(1,3-thiazol-5-yl)thiophen-3-yl]pyridine]
inhibition at 5 µM (MAPK9 (JNK2)): -6%
inhibition at 5 µM (MAP2K1 (MEK1)): 2%
inhibition at 5 µM (MAPK12 (p38 gamma, ERK3)): 3%
inhibition at 5 µM (MYLK2 (skMLCK)): 31%
inhibition at 5 µM (MAPK8 (JNK1)): 5%
inhibition at 5 µM (ABL1): 6%
inhibition at 5 µM (MINK1): 19%
inhibition at 5 µM (IGF1R): 3%
inhibition at 5 µM (MAP4K2 (GCK)): 6%
inhibition at 5 µM (PKN1 (PRK1)): -10%
inhibition at 5 µM (DAPK3 (ZIPK)): -5%
inhibition at 5 µM (AKT1 (PKB alpha)): 3%
inhibition at 5 µM (PRKCE (PKC epsilon)): -5%
inhibition at 5 µM (IRAK4): -11%
inhibition at 5 µM (RPS6KA5 (MSK1)): 10%
inhibition at 5 µM (PDK1): 7%
inhibition at 5 µM (SGK (SGK1)): 22%
inhibition at 5 µM (STK23 (MSSK1)): 0%
inhibition at 5 µM (RAF1 (cRAF) Y340D Y341D): 37%
inhibition at 5 µM (MAP2K6 (MKK6)): 7%
inhibition at 5 µM (CDK2/cyclin A): 33%
inhibition at 5 µM (NEK7): -7%
inhibition at 5 µM (FYN): 0%
inhibition at 5 µM (MKNK1 (MNK1)): 47%
inhibition at 5 µM (AURKA (Aurora A)): 2%
inhibition at 5 µM (STK22B (TSSK2)): -2%
inhibition at 5 µM (TEK (Tie2)): 0%
inhibition at 5 µM (RIPK2): 46%
inhibition at 5 µM (CHEK1 (CHK1)): 7%
caspase-3/7 activity (U2OS osteosarcoma cells): clear increase
inhibition at 5 µM (RET): 1%
inhibition at 5 µM (TAOK2 (TAO1)): -6%
inhibition at 5 µM (PRKACA (PKA)): 3%
inhibition at 5 µM (LIMK1): 4%
inhibition at 5 µM (EPHA5): -6%
inhibition at 5 µM (PAK4): 4%
inhibition at 5 µM (CLK2): 78%
inhibition at 5 µM (DYRK4): 12%
inhibition at 5 µM (RPS6KB1 (p70S6K)): -4%
